Tests used:
[1] = target: T1, Aldo-keto reductase family 1 member B1 (Bos taurus, UniProt P16116); test: Tested for inhibition of bovine lens Aldose reductase (ALR2), expressed as IC50
[2] = target: T1, Aldo-keto reductase family 1 member B1; test: Inhibitory activity of compound against modified enzyme form of S-glutathionyl Aldose reductase
[3] = target: T1, Aldo-keto reductase family 1 member B1; test: Inhibitory activity of compound against modified enzyme form of S-glutathionyl Aldose reductase; Inactive

Row | SMILES | IC50 [1] | IC50 [2] | IC50 [3]
1 | O=C(O)Cn1nc2c(c(Cc3nc4cc(C(F)(F)F)ccc4s3)c1=O)CCc1ccccc1-2 | 0.15 µM | 17 µM | 
2 | O=C(O)Cn1nc2c(cc1=O)CCc1ccccc1-2 | 12 µM |  | Not Active
